Data published in patent US6362215B1 (priority 1998, dated 2002).

What was measured:
laying hens [1] = experiment: Other tests on shell quality of older hens supplied with calcium L-pidolate; format: in vivo; conditions: between the 60th week and the 72nd week
Text: The decrease in quality of the shell increases between the 55th and 65th week. The hens are generally sacrificed at 68 to 70 weeks. […] As a result, the duration of exploitation of the hen can thus be prolonged so as to improve the profit of raising by reducing the hen/egg cost.

laying hens [2] = experiment: Henhouse test on laying hens, calcium L-pidolate in feedstuff; eggs examined by candling
Text: The downgraded percentage corresponds to the percentage of eggs with cracked shells, which shell having been carefully examined by candling so as to detect any rupture of the shell (cracks, holes, etc.). The percentage of uncracked egg shells was computed from eggs on which no shell rupture was observed by candling.

calcium L-pidolate
decrease in quality of the shell (laying hens [1]): can be stabilized
persistence of improvements in egg color (pure white eggs or chalky appearance) after stopping treatment (laying hens [2]; after stopping treatment): persisted eight to ten days after stopping treatment
percentage of downgraded eggs (eggs with cracked shells) (laying hens [2]; day after the day of administration in feedstuff, 19,300 hens, candling): decrease of the percentage of downgraded eggs
effect on quality, in particular mechanical strength of the egg shells, after end of treatment (laying hens [2]; day after the end of treatment): decreased and disappeared completely
percentage of downgraded eggs over the test period (laying hens [2]; tests of FIG. 1, winter, October-November): maintaining the percentage of downgraded eggs at a substantially constant value
